Source: PubChem BioAssay (NCI)
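Results reflect a 48-hour exposure of cells in 96-well plates to compound at five concentrations. Here, GI50 denotes the concentration required for 50% inhibition of growth. At the TGI there is no net growth.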

Tests used:
Assay in all cases: growth of human tumour cells (NCI), 48 h
HOP-92 NSCLC = system: HOP-92 NSCLC
SF-268 CNS = system: SF-268 CNS
PC-3 prostate = system: PC-3 prostate
SK-MEL-28 melanoma = system: SK-MEL-28 melanoma
MDA-MB-435 = system: MDA-MB-435
IGROV1 ovarian = system: IGROV1 ovarian
MOLT-4 leukemia = system: MOLT-4 leukemia
RXF 393 renal = system: RXF 393 renal
MDA-MB-231 breast = system: MDA-MB-231 breast
SK-OV-3 ovarian = system: SK-OV-3 ovarian
UO-31 renal = system: UO-31 renal
U251 CNS = system: U251 CNS
HS 578T breast = system: HS 578T breast
CAKI-1 renal = system: CAKI-1 renal
HCT-15 colon = system: HCT-15 colon
OVCAR-4 ovarian = system: OVCAR-4 ovarian
NCI-H522 lung = system: NCI-H522 lung
HCC-2998 colon = system: HCC-2998 colon
T-47D breast = system: T-47D breast
SF-295 CNS = system: SF-295 CNS
NCI-H226 lung = system: NCI-H226 lung
786-0 renal = system: 786-0 renal
SF-539 CNS = system: SF-539 CNS
SW-620 colon = system: SW-620 colon
MALME-3M melanoma = system: MALME-3M melanoma
K-562 leukemia = system: K-562 leukemia
RPMI-8226 leukemia = system: RPMI-8226 leukemia
NCI-H23 lung = system: NCI-H23 lung
LOX IMVI melanoma = system: LOX IMVI melanoma
SK-MEL-2 melanoma = system: SK-MEL-2 melanoma
BT-549 breast = system: BT-549 breast
COLO 205 colon = system: COLO 205 colon
HT29 colon = system: HT29 colon
HOP-62 NSCLC = system: HOP-62 NSCLC
MCF7 breast = system: MCF7 breast
CCRF-CEM leukemia = system: CCRF-CEM leukemia
TK-10 renal = system: TK-10 renal
UACC-257 melanoma = system: UACC-257 melanoma
HCT-116 colon = system: HCT-116 colon
M14 melanoma = system: M14 melanoma
DU-145 prostate = system: DU-145 prostate
SK-MEL-5 melanoma = system: SK-MEL-5 melanoma
ACHN renal = system: ACHN renal
OVCAR-8 ovarian = system: OVCAR-8 ovarian
EKVX NSCLC = system: EKVX NSCLC
OVCAR-5 ovarian = system: OVCAR-5 ovarian
OVCAR-3 ovarian = system: OVCAR-3 ovarian
SN12C renal = system: SN12C renal
A498 renal = system: A498 renal
UACC-62 melanoma = system: UACC-62 melanoma
SNB-75 CNS = system: SNB-75 CNS
A549 NSCLC = system: A549 NSCLC
NCI-H460 lung = system: NCI-H460 lung
SNB-19 CNS = system: SNB-19 CNS
KM12 colon = system: KM12 colon

O=C(NN1C(=O)CSC12CCCC2)c1[nH]c2ccc(Br)cc2c1-c1ccccc1
GI50 (HOP-92 NSCLC): 33.8 µM | TGI (HOP-92 NSCLC): > 100 µM | GI50 (SF-268 CNS): 52.1 µM | TGI (SF-268 CNS): > 100 µM | GI50 (PC-3 prostate): 38.6 µM | TGI (PC-3 prostate): > 100 µM | GI50 (SK-MEL-28 melanoma): 44 µM | TGI (SK-MEL-28 melanoma): > 100 µM | GI50 (MDA-MB-435): 23.4 µM | TGI (MDA-MB-435): 63.7 µM | GI50 (IGROV1 ovarian): 21.8 µM | TGI (IGROV1 ovarian): > 100 µM | GI50 (MOLT-4 leukemia): 21.9 µM | TGI (MOLT-4 leukemia): 90.4 µM | GI50 (RXF 393 renal): 31.2 µM | TGI (RXF 393 renal): > 100 µM | GI50 (MDA-MB-231 breast): 32.5 µM | TGI (MDA-MB-231 breast): > 100 µM | GI50 (SK-OV-3 ovarian): > 100 µM | TGI (SK-OV-3 ovarian): > 100 µM | GI50 (UO-31 renal): 59.1 µM | TGI (UO-31 renal): > 100 µM | GI50 (U251 CNS): 38.2 µM | TGI (U251 CNS): > 100 µM | GI50 (HS 578T breast): 96.8 µM | TGI (HS 578T breast): > 100 µM | GI50 (CAKI-1 renal): 32.8 µM | TGI (CAKI-1 renal): > 100 µM | GI50 (HCT-15 colon): 43.2 µM | TGI (HCT-15 colon): > 100 µM | GI50 (OVCAR-4 ovarian): 24.7 µM | TGI (OVCAR-4 ovarian): > 100 µM | GI50 (NCI-H522 lung): 30.4 µM | TGI (NCI-H522 lung): > 100 µM | GI50 (HCC-2998 colon): 44.6 µM | TGI (HCC-2998 colon): > 100 µM | GI50 (T-47D breast): 39.1 µM | TGI (T-47D breast): > 100 µM | GI50 (SF-295 CNS): 24.2 µM | TGI (SF-295 CNS): 69.7 µM | GI50 (NCI-H226 lung): > 100 µM | TGI (NCI-H226 lung): > 100 µM | GI50 (786-0 renal): 22.3 µM | TGI (786-0 renal): > 100 µM | GI50 (SF-539 CNS): > 100 µM | TGI (SF-539 CNS): > 100 µM | GI50 (SW-620 colon): 74.6 µM | TGI (SW-620 colon): > 100 µM | GI50 (MALME-3M melanoma): 38.3 µM | TGI (MALME-3M melanoma): > 100 µM | GI50 (K-562 leukemia): 18.7 µM | TGI (K-562 leukemia): 43.2 µM | GI50 (RPMI-8226 leukemia): 30.2 µM | TGI (RPMI-8226 leukemia): 86.5 µM | GI50 (NCI-H23 lung): 41.1 µM | TGI (NCI-H23 lung): > 100 µM | GI50 (LOX IMVI melanoma): 45.5 µM | TGI (LOX IMVI melanoma): > 100 µM | GI50 (SK-MEL-2 melanoma): 69 µM | TGI (SK-MEL-2 melanoma): > 100 µM | GI50 (BT-549 breast): 93.5 µM | TGI (BT-549 breast): > 100 µM | GI50 (COLO 205 colon): 53.4 µM | TGI (COLO 205 colon): > 100 µM | GI50 (HT29 colon): 30.7 µM | TGI (HT29 colon): > 100 µM | GI50 (HOP-62 NSCLC): 62.5 µM | TGI (HOP-62 NSCLC): > 100 µM | GI50 (MCF7 breast): 37.2 µM | TGI (MCF7 breast): > 100 µM | GI50 (CCRF-CEM leukemia): 40.1 µM | TGI (CCRF-CEM leukemia): > 100 µM | GI50 (TK-10 renal): 80.9 µM | TGI (TK-10 renal): > 100 µM | GI50 (UACC-257 melanoma): > 100 µM | TGI (UACC-257 melanoma): > 100 µM | GI50 (HCT-116 colon): 26.7 µM | TGI (HCT-116 colon): > 100 µM | GI50 (M14 melanoma): 49.1 µM | TGI (M14 melanoma): > 100 µM | GI50 (DU-145 prostate): > 100 µM | TGI (DU-145 prostate): > 100 µM | GI50 (SK-MEL-5 melanoma): 63.9 µM | TGI (SK-MEL-5 melanoma): > 100 µM | GI50 (ACHN renal): > 100 µM | TGI (ACHN renal): > 100 µM | GI50 (OVCAR-8 ovarian): 41 µM | TGI (OVCAR-8 ovarian): > 100 µM | GI50 (EKVX NSCLC): > 100 µM | TGI (EKVX NSCLC): > 100 µM | GI50 (OVCAR-5 ovarian): > 100 µM | TGI (OVCAR-5 ovarian): > 100 µM | GI50 (OVCAR-3 ovarian): 18.8 µM | TGI (OVCAR-3 ovarian): 56.7 µM | GI50 (SN12C renal): 25.9 µM | TGI (SN12C renal): 77 µM | GI50 (A498 renal): > 100 µM | TGI (A498 renal): > 100 µM | GI50 (UACC-62 melanoma): 19.7 µM | TGI (UACC-62 melanoma): > 100 µM | GI50 (SNB-75 CNS): 46.1 µM | TGI (SNB-75 CNS): > 100 µM | GI50 (A549 NSCLC): 35.5 µM | TGI (A549 NSCLC): > 100 µM | GI50 (NCI-H460 lung): 46.9 µM | TGI (NCI-H460 lung): > 100 µM | GI50 (SNB-19 CNS): 54.1 µM | TGI (SNB-19 CNS): > 100 µM | GI50 (KM12 colon): 28.5 µM | TGI (KM12 colon): > 100 µM
